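Exposure lasted 48 hours, with cells grown in 96-well plates and compounds tested at five concentrations. TGI: concentration producing complete growth inhibition.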
What was measured:
Test in all cases: DTP human tumour cell line panel, 48 h
EKVX NSCLC = tested on: EKVX NSCLC
OVCAR-4 ovarian = tested on: OVCAR-4 ovarian
K-562 leukemia = tested on: K-562 leukemia
OVCAR-3 ovarian = tested on: OVCAR-3 ovarian
UACC-257 melanoma = tested on: UACC-257 melanoma
RXF 393 renal = tested on: RXF 393 renal
NCI-H460 lung = tested on: NCI-H460 lung
TK-10 renal = tested on: TK-10 renal
SF-539 CNS = tested on: SF-539 CNS
HCT-116 colon = tested on: HCT-116 colon
OVCAR-8 ovarian = tested on: OVCAR-8 ovarian
SNB-78 CNS = tested on: SNB-78 CNS
SK-MEL-28 melanoma = tested on: SK-MEL-28 melanoma
HOP-92 NSCLC = tested on: HOP-92 NSCLC
OVCAR-5 ovarian = tested on: OVCAR-5 ovarian
IGROV1 ovarian = tested on: IGROV1 ovarian
UACC-62 melanoma = tested on: UACC-62 melanoma
HCT-15 colon = tested on: HCT-15 colon
786-0 renal = tested on: 786-0 renal
U251 CNS = tested on: U251 CNS
CCRF-CEM leukemia = tested on: CCRF-CEM leukemia
ACHN renal = tested on: ACHN renal
A549 NSCLC = tested on: A549 NSCLC
MOLT-4 leukemia = tested on: MOLT-4 leukemia
LOX IMVI melanoma = tested on: LOX IMVI melanoma
SK-MEL-2 melanoma = tested on: SK-MEL-2 melanoma
SW-620 colon = tested on: SW-620 colon
HT29 colon = tested on: HT29 colon
HOP-62 NSCLC = tested on: HOP-62 NSCLC
KM20L2 colon = tested on: KM20L2 colon
SN12C renal = tested on: SN12C renal
SK-MEL-5 melanoma = tested on: SK-MEL-5 melanoma
M14 melanoma = tested on: M14 melanoma
LXFL 529 NSCLC = tested on: LXFL 529 NSCLC
NCI-H522 lung = tested on: NCI-H522 lung
NCI-H23 lung = tested on: NCI-H23 lung
UO-31 renal = tested on: UO-31 renal
HL-60(TB) leukemia = tested on: HL-60(TB) leukemia
SK-OV-3 ovarian = tested on: SK-OV-3 ovarian
SNB-75 CNS = tested on: SNB-75 CNS
KM12 colon = tested on: KM12 colon
SF-295 CNS = tested on: SF-295 CNS
DLD-1 colon = tested on: DLD-1 colon
MALME-3M melanoma = tested on: MALME-3M melanoma
HCC-2998 colon = tested on: HCC-2998 colon
SR leukemia = tested on: SR leukemia
NCI-H226 lung = tested on: NCI-H226 lung
HOP-18 NSCLC = tested on: HOP-18 NSCLC
COLO 205 colon = tested on: COLO 205 colon
M19-MEL melanoma = tested on: M19-MEL melanoma
DMS 114 small cell lung = tested on: DMS 114 small cell lung
DMS 273 small cell lung = tested on: DMS 273 small cell lung
A498 renal = tested on: A498 renal
CAKI-1 renal = tested on: CAKI-1 renal
SNB-19 CNS = tested on: SNB-19 CNS
SF-268 CNS = tested on: SF-268 CNS

Q: How did the TGI (EKVX NSCLC) turn out when CN(C)CCSc1cccc(-c2cc(-c3cccc(SCCN(C)C)c3)nc(SCCN(C)C)n2)c1 was run?
A: Its TGI is 5.24 µM.

Q: What about the TGI (OVCAR-4 ovarian) of the same compound?
A: Its TGI is 3.04 µM.

Q: What about the TGI (K-562 leukemia) of the same compound?
A: Its TGI is 3.1 µM.

Q: What about the TGI (OVCAR-3 ovarian) of the same compound?
A: Its TGI is 21.8 µM.

Q: What about the TGI (UACC-257 melanoma) of the same compound?
A: Its TGI is 3.02 µM.

Q: And the TGI (RXF 393 renal)?
A: The TGI was 2800 nM.

Q: And the TGI (NCI-H460 lung)?
A: Its TGI is 3.46 µM.

Q: And the TGI (TK-10 renal)?
A: Its TGI is 9.65 µM.

Q: And the TGI (SF-539 CNS)?
A: The TGI was 3.19 µM.

Q: And the TGI (HCT-116 colon)?
A: Its TGI is 2950 nM.

Q: What about the TGI (OVCAR-8 ovarian) of the same compound?
A: Its TGI is 2780 nM.

Q: And the TGI (SNB-78 CNS)?
A: The TGI was 6.25 µM.

Q: What about the TGI (SK-MEL-28 melanoma) of the same compound?
A: The TGI was 3.4 µM.

Q: And the TGI (HOP-92 NSCLC)?
A: The TGI was 6.87 µM.

Q: And the TGI (OVCAR-5 ovarian)?
A: The TGI was 19.5 µM.

Q: And the TGI (IGROV1 ovarian)?
A: The TGI was 13.8 µM.

Q: What about the TGI (UACC-62 melanoma) of the same compound?
A: The TGI was 32 µM.

Q: And the TGI (HCT-15 colon)?
A: Its TGI is 4.67 µM.

Q: And the TGI (786-0 renal)?
A: Its TGI is 20.9 µM.

Q: What about the TGI (U251 CNS) of the same compound?
A: The TGI was 3.54 µM.

Q: What about the TGI (CCRF-CEM leukemia) of the same compound?
A: Its TGI is 4.8 µM.

Q: And the TGI (ACHN renal)?
A: The TGI was 19.4 µM.

Q: And the TGI (A549 NSCLC)?
A: The TGI was 3.47 µM.

Q: What about the TGI (MOLT-4 leukemia) of the same compound?
A: The TGI was 4.66 µM.

Q: What about the TGI (LOX IMVI melanoma) of the same compound?
A: Its TGI is 3.03 µM.

Q: What about the TGI (SK-MEL-2 melanoma) of the same compound?
A: Its TGI is 21.1 µM.

Q: And the TGI (SW-620 colon)?
A: The TGI was 3.95 µM.

Q: What about the TGI (HT29 colon) of the same compound?
A: Its TGI is 3.4 µM.

Q: What about the TGI (HOP-62 NSCLC) of the same compound?
A: Its TGI is 30.2 µM.

Q: And the TGI (KM20L2 colon)?
A: The TGI was 3.46 µM.

Q: And the TGI (SN12C renal)?
A: The TGI was 24.7 µM.

Q: What about the TGI (SK-MEL-5 melanoma) of the same compound?
A: The TGI was 2960 nM.

Q: What about the TGI (M14 melanoma) of the same compound?
A: Its TGI is 2990 nM.

Q: What about the TGI (LXFL 529 NSCLC) of the same compound?
A: Its TGI is 3.89 µM.

Q: What about the TGI (NCI-H522 lung) of the same compound?
A: The TGI was 2980 nM.

Q: What about the TGI (NCI-H23 lung) of the same compound?
A: The TGI was 15.3 µM.

Q: What about the TGI (UO-31 renal) of the same compound?
A: Its TGI is 27.9 µM.

Q: And the TGI (HL-60(TB) leukemia)?
A: Its TGI is 3.67 µM.

Q: What about the TGI (SK-OV-3 ovarian) of the same compound?
A: The TGI was 45.5 µM.

Q: And the TGI (SNB-75 CNS)?
A: The TGI was 12.1 µM.

Q: And the TGI (KM12 colon)?
A: Its TGI is 3.44 µM.

Q: What about the TGI (SF-295 CNS) of the same compound?
A: The TGI was 3.52 µM.

Q: What about the TGI (DLD-1 colon) of the same compound?
A: Its TGI is 25.9 µM.

Q: What about the TGI (MALME-3M melanoma) of the same compound?
A: The TGI was 3.38 µM.

Q: And the TGI (HCC-2998 colon)?
A: The TGI was 7.76 µM.

Q: And the TGI (SR leukemia)?
A: The TGI was 4.49 µM.

Q: Which results are given for COc1ccc(C2Oc3cc(OC)c(O)c(C)c3[C@H]2C)cc1 (stereo not given in full)?
A: TGI (NCI-H226 lung): > 100 µM; TGI (EKVX NSCLC): > 100 µM; TGI (OVCAR-4 ovarian): > 100 µM; TGI (K-562 leukemia): > 100 µM; TGI (OVCAR-3 ovarian): > 100 µM; TGI (UACC-257 melanoma): > 100 µM; TGI (RXF 393 renal): > 100000 nM; TGI (HOP-18 NSCLC): > 100 µM; TGI (NCI-H460 lung): > 100 µM; TGI (TK-10 renal): > 100 µM; TGI (COLO 205 colon): > 100 µM; TGI (SF-539 CNS): > 100 µM; TGI (HCT-116 colon): > 100000 nM; TGI (OVCAR-8 ovarian): > 100000 nM; TGI (SNB-78 CNS): > 100 µM; TGI (SK-MEL-28 melanoma): > 100 µM; TGI (HOP-92 NSCLC): > 100 µM; TGI (OVCAR-5 ovarian): > 100 µM; TGI (IGROV1 ovarian): > 100 µM; TGI (UACC-62 melanoma): > 100 µM; TGI (HCT-15 colon): > 100 µM; TGI (786-0 renal): > 100 µM; TGI (U251 CNS): > 100 µM; TGI (CCRF-CEM leukemia): > 100 µM; TGI (M19-MEL melanoma): > 100 µM; TGI (ACHN renal): > 100 µM; TGI (A549 NSCLC): > 100 µM; TGI (DMS 114 small cell lung): > 100 µM; TGI (MOLT-4 leukemia): 89.3 µM; TGI (LOX IMVI melanoma): > 100 µM; TGI (SK-MEL-2 melanoma): > 100 µM; TGI (SW-620 colon): > 100 µM; TGI (HT29 colon): > 100 µM; TGI (HOP-62 NSCLC): > 100 µM; TGI (DMS 273 small cell lung): > 100 µM; TGI (KM20L2 colon): > 100 µM; TGI (A498 renal): > 100 µM; TGI (SK-MEL-5 melanoma): > 100000 nM; TGI (M14 melanoma): > 100000 nM; TGI (CAKI-1 renal): > 100 µM; TGI (LXFL 529 NSCLC): > 100 µM; TGI (NCI-H522 lung): > 100000 nM; TGI (NCI-H23 lung): > 100 µM; TGI (UO-31 renal): 78 µM; TGI (HL-60(TB) leukemia): 76.7 µM; TGI (SNB-19 CNS): > 100 µM; TGI (SK-OV-3 ovarian): > 100 µM; TGI (SNB-75 CNS): 69.5 µM; TGI (KM12 colon): > 100 µM; TGI (SF-295 CNS): > 100 µM; TGI (DLD-1 colon): > 100 µM; TGI (MALME-3M melanoma): > 100 µM; TGI (HCC-2998 colon): > 100 µM; TGI (SF-268 CNS): > 100 µM

Source: PubChem BioAssay (NCI)
